Test results from PMC12116762, “Topobexin targets the Topoisomerase II ATPase domain for beta isoform-selective inhibition and anthracycline cardioprotection” (Nature Communications, 2025).
Several values for one entry are separate records, joined by “and”; a condition that tells them apart may be missing. Equal values may be shown once. Read-outs that look alike come from different tables or passages of the source.

Experiments:
recombinant human TOP2A = molecular target: T1, recombinant human TOP2A (Homo sapiens, UniProt P11388); assay: In vitro ATPase activity of TOP2A (coupled assay); format: biochemical
T1 construct: Using recombinant full-length human TOP2A and TOP2B enzymes; YFP (N, cleaved yes); made in house; host or cells: HEK293F
Protocol: (§1) Topoisomerase proteins were diluted to 500 nM in storage buffer containing 20 mM HEPES pH 7.5, 500 mM NaCl, 0.5 mM TCEP, 25% glycerol, and 0.2 mg/mL BSA prior to use. A coupled assay was used to measure TOP2-catalyzed ATP hydrolysis in vitro[37] in Costar 96-well plates (Corning Incorporated). […] Reaction plates were pre-warmed to 30 °C for 5 min and ATP was added last to initiate the reaction. The reaction plate was placed in a CLARIOstarPlus plate reader (BMG Labtech) to measure NADH fluorescence at 30 °C every 30 s over 120 cycles using a 340-60 excitation filter and a 480-100 emission filter. Background fluorescence signals calculated from wells containing no ATP were subtracted from each measurement. The slope of NADH fluorescence decay in each well was calculated using the MARS software (BMG Labtech) and reaction wells that lacked topoisomerase inhibitor to account for photobleaching of NADH fluorescence served as background subtraction. Each presented data point was obtained from distinct sample. Values were normalized to untreated controls and plotted as a function of inhibitor concentration to determine IC50 values using Prism 9 (GraphPad).

[1] = test system: neonatal rat ventricular cardiomyocytes (NVCM); assay: Protection against DAU-induced cytotoxicity (LDH release) in NVCM; format: cell-based; parameters: key to Suppl.Fig.3 DAU-induced cytotoxicity (LDH release) in NVCM, mean of independent replicates / LDH release (DAU-induced cytotoxicity), mean of independent replicates: % of total LDH activity; details: for LDH release: independent replicates
Outline: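 Primary neonatal Wistar rat cardiomyocytes in serum- and pyruvate-free DMEM/F12 were pretreated with compound 3 h, then co-incubated 3 h with DAU (1.2 µM), or without DAU for inherent toxicity, then given a 48 h drug-free follow-up. Medium LDH activity (NAD+ reduction at 340 nm) expressed as % of total LDH.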

recombinant human TOP2B = molecular target: T2, recombinant human TOP2B (Homo sapiens, UniProt Q02880); assay: In vitro ATPase activity of TOP2B (coupled assay); format: biochemical
T2 construct: Using recombinant full-length human TOP2A and TOP2B enzymes; YFP (N, cleaved yes); made in house; host or cells: HEK293F
Protocol: as §1

[2] = independent replicates, normalized to 0 drug, read-out: Normalized % TOP2A activity
[3] = independent replicates, read-out: Normalized % TOP2A activity, ATPase

T1 sequence (P11388 whole entry): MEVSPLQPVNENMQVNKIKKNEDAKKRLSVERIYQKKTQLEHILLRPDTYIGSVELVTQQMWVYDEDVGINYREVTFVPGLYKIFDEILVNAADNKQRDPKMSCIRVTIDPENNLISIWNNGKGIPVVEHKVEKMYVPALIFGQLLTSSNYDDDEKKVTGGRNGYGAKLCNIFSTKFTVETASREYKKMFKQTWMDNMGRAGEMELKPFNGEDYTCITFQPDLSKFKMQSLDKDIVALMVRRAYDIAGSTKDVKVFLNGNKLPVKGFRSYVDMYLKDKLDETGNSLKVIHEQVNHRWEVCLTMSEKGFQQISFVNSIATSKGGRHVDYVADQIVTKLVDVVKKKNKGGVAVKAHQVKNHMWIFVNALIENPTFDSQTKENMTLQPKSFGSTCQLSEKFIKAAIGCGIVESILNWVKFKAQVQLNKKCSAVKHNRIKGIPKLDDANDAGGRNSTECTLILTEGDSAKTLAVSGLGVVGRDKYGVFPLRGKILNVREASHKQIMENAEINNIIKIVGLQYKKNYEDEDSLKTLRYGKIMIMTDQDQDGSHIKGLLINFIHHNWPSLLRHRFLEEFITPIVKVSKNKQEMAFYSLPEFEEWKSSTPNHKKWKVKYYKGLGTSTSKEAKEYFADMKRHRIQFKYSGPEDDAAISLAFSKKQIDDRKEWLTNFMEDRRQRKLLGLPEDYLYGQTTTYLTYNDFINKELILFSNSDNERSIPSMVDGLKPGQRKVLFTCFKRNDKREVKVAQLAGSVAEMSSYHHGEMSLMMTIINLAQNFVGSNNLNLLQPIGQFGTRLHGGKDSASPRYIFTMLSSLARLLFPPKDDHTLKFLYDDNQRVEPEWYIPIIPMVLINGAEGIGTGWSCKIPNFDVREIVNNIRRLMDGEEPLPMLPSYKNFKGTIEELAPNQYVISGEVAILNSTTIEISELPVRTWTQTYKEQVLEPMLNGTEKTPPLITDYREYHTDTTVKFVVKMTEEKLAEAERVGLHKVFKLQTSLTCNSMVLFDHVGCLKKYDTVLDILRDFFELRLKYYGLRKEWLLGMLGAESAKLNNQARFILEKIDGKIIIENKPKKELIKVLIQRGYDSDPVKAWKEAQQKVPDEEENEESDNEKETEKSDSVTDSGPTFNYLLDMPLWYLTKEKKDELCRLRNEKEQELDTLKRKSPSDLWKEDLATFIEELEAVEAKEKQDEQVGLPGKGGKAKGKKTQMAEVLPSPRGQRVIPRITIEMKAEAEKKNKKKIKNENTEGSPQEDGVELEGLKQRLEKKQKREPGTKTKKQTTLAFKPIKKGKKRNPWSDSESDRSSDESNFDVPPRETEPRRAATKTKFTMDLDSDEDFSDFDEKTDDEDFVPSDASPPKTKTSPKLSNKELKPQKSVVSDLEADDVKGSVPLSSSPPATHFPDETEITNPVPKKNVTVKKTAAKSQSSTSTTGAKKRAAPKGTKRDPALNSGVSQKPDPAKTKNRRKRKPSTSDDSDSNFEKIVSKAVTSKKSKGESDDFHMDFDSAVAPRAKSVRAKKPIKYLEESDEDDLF
T2 sequence (Q02880 1-1621 isoform Q02880-2): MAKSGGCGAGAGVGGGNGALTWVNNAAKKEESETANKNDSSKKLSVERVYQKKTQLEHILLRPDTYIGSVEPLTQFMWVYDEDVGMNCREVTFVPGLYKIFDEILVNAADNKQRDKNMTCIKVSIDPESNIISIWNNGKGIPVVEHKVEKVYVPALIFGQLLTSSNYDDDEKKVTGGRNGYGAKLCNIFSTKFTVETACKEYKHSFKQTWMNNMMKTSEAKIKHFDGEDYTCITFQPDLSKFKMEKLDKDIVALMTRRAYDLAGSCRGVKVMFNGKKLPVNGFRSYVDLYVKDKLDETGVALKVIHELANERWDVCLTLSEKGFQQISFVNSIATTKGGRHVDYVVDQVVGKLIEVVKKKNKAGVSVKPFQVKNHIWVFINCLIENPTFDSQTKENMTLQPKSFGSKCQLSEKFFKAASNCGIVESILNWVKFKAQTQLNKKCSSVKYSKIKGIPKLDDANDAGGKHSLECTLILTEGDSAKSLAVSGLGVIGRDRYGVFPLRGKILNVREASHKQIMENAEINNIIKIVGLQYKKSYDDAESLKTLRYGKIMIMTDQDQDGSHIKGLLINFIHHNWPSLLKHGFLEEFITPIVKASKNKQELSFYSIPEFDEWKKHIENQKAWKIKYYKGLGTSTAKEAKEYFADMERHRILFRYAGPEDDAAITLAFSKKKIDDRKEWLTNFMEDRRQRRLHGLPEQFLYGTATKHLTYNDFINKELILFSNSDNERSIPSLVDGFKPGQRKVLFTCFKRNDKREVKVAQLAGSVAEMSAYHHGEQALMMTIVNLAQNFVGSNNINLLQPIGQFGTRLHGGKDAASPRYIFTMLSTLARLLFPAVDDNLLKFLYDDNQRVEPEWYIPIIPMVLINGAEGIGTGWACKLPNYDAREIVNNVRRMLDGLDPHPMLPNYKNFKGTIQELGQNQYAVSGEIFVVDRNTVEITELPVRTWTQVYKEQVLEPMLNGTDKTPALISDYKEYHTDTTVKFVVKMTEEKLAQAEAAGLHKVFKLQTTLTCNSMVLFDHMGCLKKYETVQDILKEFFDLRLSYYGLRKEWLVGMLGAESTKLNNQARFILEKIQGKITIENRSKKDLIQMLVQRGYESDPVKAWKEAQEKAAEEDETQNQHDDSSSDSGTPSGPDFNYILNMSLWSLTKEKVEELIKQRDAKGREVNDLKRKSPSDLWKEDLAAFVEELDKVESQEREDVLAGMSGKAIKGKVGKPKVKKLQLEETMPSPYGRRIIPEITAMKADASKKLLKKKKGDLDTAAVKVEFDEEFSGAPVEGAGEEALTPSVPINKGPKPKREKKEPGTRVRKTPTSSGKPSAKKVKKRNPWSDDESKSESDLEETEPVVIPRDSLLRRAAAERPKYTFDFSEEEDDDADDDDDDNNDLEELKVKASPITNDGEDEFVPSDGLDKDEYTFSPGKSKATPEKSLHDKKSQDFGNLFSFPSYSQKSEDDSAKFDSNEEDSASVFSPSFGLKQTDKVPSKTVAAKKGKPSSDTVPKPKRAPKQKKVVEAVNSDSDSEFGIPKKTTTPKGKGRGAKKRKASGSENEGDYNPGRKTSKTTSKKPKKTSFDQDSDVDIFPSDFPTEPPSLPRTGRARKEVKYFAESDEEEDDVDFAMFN

CCCc1cc(=O)oc2c(C(=O)N3CCCc4ccccc43)c(OCCN3CCN(C)CC3)ccc12 [topobexin (9)]
remaining activity at 0.03125 µM (recombinant human TOP2A; 0.03125 μM, independent replicates, read-out: Normalized % TOP2A activity, ATPase): 89.4% | remaining activity at 0.0625 µM (recombinant human TOP2A; [2]): 89.1% | remaining activity at 0.0625 µM (recombinant human TOP2A; [3]): 92.8% | remaining activity at 0.125 µM (recombinant human TOP2A; 0.125 μM, independent replicates, normalized to 0 drug, read-out: Normalized % TOP2A activity): 88.8% | remaining activity at 0.25 µM (recombinant human TOP2A; [2]): 87.4% | remaining activity at 0.25 µM (recombinant human TOP2A; [3]): 79.6% | remaining activity at 0.5 µM (recombinant human TOP2A; 0.5 μM, independent replicates, normalized to 0 drug, read-out: Normalized % TOP2A activity): 81.9% | remaining activity at 1 µM (recombinant human TOP2A; 1 μM, independent replicates, normalized to 0 drug, read-out: Normalized % TOP2A activity): 73.3% | remaining activity at 2 µM (recombinant human TOP2A; 2 μM, independent replicates, normalized to 0 drug, read-out: Normalized % TOP2A activity): 53.8% | remaining activity at 4 µM (recombinant human TOP2A; 4 μM, independent replicates, normalized to 0 drug, read-out: Normalized % TOP2A activity): 26.2% | remaining activity at 8 µM (recombinant human TOP2A; [2]): 5.71% | remaining activity at 8 µM (recombinant human TOP2A; [3]): 28.6% | remaining activity at 16 µM (recombinant human TOP2A; 16 μM, independent replicates, read-out: Normalized % TOP2A activity, ATPase): 14.4% | IC50 (recombinant human TOP2A; n=3): 4.09 µM | concentration providing significant cardioprotection ([1]; NVCM, DAU 1.2 µM): ≥ 1 µM | minimal effective concentration ([1]; Rattus norvegicus, Cardiomyocyte, NVCM, protection against DAU 1.2 µM, n=4, read-out: LEC = lowest effective concentration): 1 µM | LDH release, mean ([1]; compound 0.01 µM + DAU 1.2 µM): 39.6717 % of total LDH | LDH release (protection against DAU), mean of independent replicates ([1]; compound 0.01 µM + DAU 1.2 µM, NVCM, Suppl.Fig.6b): 39.6717 | LDH release ([1]; compound 0.01 µM + DAU 1.2 µM): 48.3922 % of total LDH and 39.9759 % of total LDH and 35.5793 % of total LDH and 34.7393 % of total LDH | LDH release, mean ([1]; compound 0.1 µM + DAU 1.2 µM): 37.5382 % of total LDH | LDH release (protection against DAU), mean of independent replicates ([1]; compound 0.1 µM + DAU 1.2 µM, NVCM, Suppl.Fig.6b): 37.5382 | LDH release (protection against DAU), mean of independent replicates ([1]; compound 0.1 µM + DAU 1.2 µM, NVCM, Suppl.Fig.8a): 42.825 | LDH release ([1]; compound 0.1 µM + DAU 1.2 µM): 40.1489 % of total LDH and 41.381 % of total LDH and 32.4516 % of total LDH and 36.1711 % of total LDH | LDH release, mean ([1]; compound 1 µM + DAU 1.2 µM): 29.7613 % of total LDH | LDH release (protection against DAU), mean of independent replicates ([1]; compound 1 µM + DAU 1.2 µM, NVCM, Suppl.Fig.6b): 29.7613 | LDH release (protection against DAU), mean of independent replicates ([1]; compound 1 µM + DAU 1.2 µM, NVCM, Suppl.Fig.8a): 37.7816 | LDH release ([1]; compound 1 µM + DAU 1.2 µM): 32.8929 % of total LDH and 30.456 % of total LDH and 27.486 % of total LDH and 28.2102 % of total LDH | LDH release, mean ([1]; compound 10 µM + DAU 1.2 µM): 24.2662 % of total LDH | LDH release (protection against DAU), mean of independent replicates ([1]; compound 10 µM + DAU 1.2 µM, NVCM, Suppl.Fig.6b): 24.2662 | LDH release (protection against DAU), mean of independent replicates ([1]; compound 10 µM + DAU 1.2 µM, NVCM, Suppl.Fig.8a): 30.0056 | LDH release ([1]; compound 10 µM + DAU 1.2 µM): 28.5774 % of total LDH and 24.8184 % of total LDH and 21.0698 % of total LDH and 22.5992 % of total LDH | LDH release, mean ([1]; compound 30 µM + DAU 1.2 µM): 25.2224 % of total LDH | LDH release (protection against DAU), mean of independent replicates ([1]; compound 30 µM + DAU 1.2 µM, NVCM, Suppl.Fig.6b): 25.2224 | LDH release ([1]; compound 30 µM + DAU 1.2 µM): 28.8537 % of total LDH and 23.9613 % of total LDH and 20.3957 % of total LDH and 27.679 % of total LDH | LDH release, mean ([1]; compound 100 µM + DAU 1.2 µM): 26.7487 % of total LDH | LDH release (protection against DAU), mean of independent replicates ([1]; compound 100 µM + DAU 1.2 µM, NVCM, Suppl.Fig.6b): 26.7487 | LDH release (protection against DAU), mean of independent replicates ([1]; compound 100 µM + DAU 1.2 µM, NVCM, Suppl.Fig.8a): 32.5863 | LDH release ([1]; compound 100 µM + DAU 1.2 µM): 31.0584 % of total LDH and 27.7033 % of total LDH and 21.5053 % of total LDH and 26.728 % of total LDH | lowest concentration with statistically significant cytoprotective effects ([1]; side-by-side comparison with dexrazoxane (Supp Fig 8a)): 0.1 µM | remaining activity at 0.0625 µM (recombinant human TOP2B; 0.0625 μM, independent replicates, normalized to 0 drug, read-out: Normalized % TOP2B activity): 96.9% | remaining activity at 0.125 µM (recombinant human TOP2B; 0.125 μM, independent replicates, normalized to 0 drug, read-out: Normalized % TOP2B activity): 95.3% | remaining activity at 0.25 µM (recombinant human TOP2B; 0.25 μM, independent replicates, normalized to 0 drug, read-out: Normalized % TOP2B activity): 95.6% | remaining activity at 0.5 µM (recombinant human TOP2B; 0.5 μM, independent replicates, normalized to 0 drug, read-out: Normalized % TOP2B activity): 87% | remaining activity at 1 µM (recombinant human TOP2B; independent replicates, normalized to 0 drug, read-out: Normalized % TOP2B activity): 74% | remaining activity at 1 µM (recombinant human TOP2B; independent replicates, read-out: Normalized % TOP2B activity, ATPase): 16.4% | remaining activity at 2 µM (recombinant human TOP2B; 2 μM, independent replicates, normalized to 0 drug, read-out: Normalized % TOP2B activity): 48.9% | remaining activity at 4 µM (recombinant human TOP2B; 4 μM, independent replicates, normalized to 0 drug, read-out: Normalized % TOP2B activity): 23.7% | remaining activity at 8 µM (recombinant human TOP2B; 8 μM, independent replicates, normalized to 0 drug, read-out: Normalized % TOP2B activity): 9.64% | SRbeta (SRTOP2B), TOP2 ATPase activity (recombinant human TOP2B; TOP2A IC50 divided by TOP2B IC50): 12 | IC50 (recombinant human TOP2B; n=3): 0.35 µM

COc1cccc2c1C(=O)c1c(O)c3c(c(O)c1C2=O)C[C@@](O)(C(C)=O)C[C@@H]3O[C@H]1C[C@H](N)[C@H](O)[C@H](C)O1 [DAU, daunorubicin, reference compound]
LDH release, mean ([1]; DAU 1.2 µM alone, 48 h): 50.9581 % of total LDH and 40.9598 % of total LDH and 38.3367 % of total LDH | LDH release ([1]; DAU 1.2 µM alone, 48 h): 42.9177 % of total LDH and 49.9715 % of total LDH and 51.9004 % of total LDH and 59.0427 % of total LDH and 48.4333 % of total LDH and 43.9079 % of total LDH and 36.1066 % of total LDH and 35.3914 % of total LDH and 37.5065 % of total LDH and 36.8503 % of total LDH and 39.0464 % of total LDH and 39.9436 % of total LDH | LDH release (DAU-induced cytotoxicity), mean of independent replicates ([1]; DAU 1.2 µM alone, NVCM, Suppl.Fig.6b): 49.0741 and 44.6225 and 40.9598 and 43.4866 | LDH release (DAU-induced cytotoxicity), mean of independent replicates ([1]; DAU 1.2 µM alone, NVCM, Suppl.Fig.8a): 50.2853 | Suppl.Fig.3 DAU-induced cytotoxicity (LDH release) in NVCM, mean of independent replicates ([1]; DAU 1.2 µM alone, one value per experiment set (compound block)): 52.5555 and 50.9581 and 43.2031 and 52.6717 and 39.8455 and 40.6658 and 38.8384 and 49.4177 and 40.4688 and 38.0883 and 38.3367 and 37.1578 and 50.485 and 47.9698 and 52.8733 and 52.0892 and 42.039 and 50.4287
